# According to patent US20240238239A1, “METHODS AND COMPOSITIONS FOR PO[…] CELL THERAPIES” (Ojai Energetics PBC, priority 2016, published 2024):
# Tested on: mice with spinal cord injuries
# Assay: Neural stem cell treatment after spinal cord injury (BMS scores, rotarod treadmill tests)
# Type: in vivo, mouse
# Conditions: neural stem cells pre-treated with cannabidiol 1-50 μM for 10 days plus diet supplemented with microencapsulated hemp oil composition; combined treatment
# Description: Mouse neural stem cells expressing green fluorescent protein (GFP) under the control of a constitutive promoter are treated with either cannabidiol (1 μM, 5 μM, 10 μM or 50 μM) or vehicle control for 10 days. The cells are then transplanted directly into the spinal cords of mice with spinal cord injuries. Mice are maintained on a control diet or a diet supplemented with a microencapsulated hemp oil composition comprising cannabinoids, including cannabidiol, at concentrations similar to those used in the cell culture media. Mice are monitored daily for signs of spinal cord recovery evaluations of locomotor function based on Basso Mouse Scale (BMS) scores, a locomotor rating scale based on the frequency analyses of seven locomotor categories, and rotarod treadmill tests. Two months after the stem cell treatment the mice are sacrificed and the spinal cords are histologically examined.
smiles,measurement,value
C=C(C)[C@@H]1CCC(C)=C[C@H]1c1c(O)cc(CCCCC)cc1O [cannabidiol],spinal cord recovery (locomotor function),more rapid and more robust recovery
